Experimental data published in publication PMC8455565 (Scientific Reports, 2021).

Columns and labels:
BTK [1] = target: T1, BTK (Homo sapiens, UniProt Q06187); experiment: hBTK Lanthascreen biochemical activity
B cells [2] = experiment: Antigen-presentation assay (OVA-preactivated B cells with DO11.10 T cells); assay type: cell-based, mouse
Procedure: DO11.10 and BALB/C mice were purchased from The Jackson Laboratory and housed in accordance with the policies of the IACUC of Eli Lilly and Company. BALB/C mice were primed with 10 µg/ml ovalbumin (OVA) in Alhydrogel (InvivoGen, CA, USA) at a 2:1 ratio and boosted with 10 µg/ml OVA in PBS 2 weeks after priming. BALB/C mice were sacrificed 4 days after boosting, and B cells were purified from splenocytes using CD19 microbeads (Miltenyi Biotec) for positive selection. B cells were preincubated with HM71305/LSN3359180 for 1 h before the addition of OVA protein or OVA323-339 peptide, and T cells were positively isolated from DO11.10 transgenic mice using CD4 microbeads (Miltenyi Biotec). The supernatants were collected after 18 h, and IL-2 was measured by ELISA using mouse IL-2 DuoSet (DY402, R&D Systems). FACS analysis of CD69 (H1.2F3, Biolegend), CD86 (B7-2, BD Biosciences) and H2-IA/IE (M5/114.15.3, BD Biosciences) was performed using BD LSR Fortessa, and data were analyzed by FlowJo10 (FlowJo, LLC).

CTLL-2 = experiment: IL-2 induced T cell proliferation in CTLL-2; assay type: cell-based; details: Mus musculus, cellular level
BTK [3] = target: T1, BTK; experiment: BTK occupancy in whole blood ex vivo; assay type: cell-based; design: from tissue; host or cells: whole blood
JAK3 = target: T2, JAK3 (Homo sapiens, UniProt P52333); experiment: Kinase selectivity biochemical assay, JAK3; details: biochemical assay
T2 sequence (P52333 1-1124): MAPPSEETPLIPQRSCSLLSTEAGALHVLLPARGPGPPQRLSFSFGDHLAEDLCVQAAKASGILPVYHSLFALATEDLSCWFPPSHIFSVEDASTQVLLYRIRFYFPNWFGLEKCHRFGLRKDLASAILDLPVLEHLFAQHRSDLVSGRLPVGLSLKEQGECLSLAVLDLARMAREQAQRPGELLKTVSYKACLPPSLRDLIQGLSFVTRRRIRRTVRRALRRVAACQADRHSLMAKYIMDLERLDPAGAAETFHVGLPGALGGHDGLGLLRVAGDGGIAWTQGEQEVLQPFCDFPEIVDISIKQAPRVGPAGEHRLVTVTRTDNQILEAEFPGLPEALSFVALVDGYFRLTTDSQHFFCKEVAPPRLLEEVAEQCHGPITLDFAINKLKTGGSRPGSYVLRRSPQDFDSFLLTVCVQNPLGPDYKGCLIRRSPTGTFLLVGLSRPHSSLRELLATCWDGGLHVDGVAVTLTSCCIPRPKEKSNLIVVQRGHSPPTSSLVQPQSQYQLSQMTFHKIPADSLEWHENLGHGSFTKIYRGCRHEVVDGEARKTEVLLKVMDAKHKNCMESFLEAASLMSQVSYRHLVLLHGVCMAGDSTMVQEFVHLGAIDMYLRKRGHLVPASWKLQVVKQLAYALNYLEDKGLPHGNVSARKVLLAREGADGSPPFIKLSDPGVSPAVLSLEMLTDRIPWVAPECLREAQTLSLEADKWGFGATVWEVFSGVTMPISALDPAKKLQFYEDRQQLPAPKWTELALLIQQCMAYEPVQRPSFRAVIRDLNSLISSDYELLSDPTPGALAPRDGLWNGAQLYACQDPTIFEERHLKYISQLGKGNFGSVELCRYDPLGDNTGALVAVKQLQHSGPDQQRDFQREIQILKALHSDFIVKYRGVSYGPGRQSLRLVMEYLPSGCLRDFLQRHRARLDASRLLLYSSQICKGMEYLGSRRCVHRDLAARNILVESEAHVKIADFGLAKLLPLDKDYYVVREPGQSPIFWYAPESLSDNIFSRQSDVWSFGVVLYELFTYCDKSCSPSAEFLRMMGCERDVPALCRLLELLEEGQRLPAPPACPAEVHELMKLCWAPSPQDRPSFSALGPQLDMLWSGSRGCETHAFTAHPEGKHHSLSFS

A431 = experiment: Cell growth inhibition in EGFR overexpressed A431; assay type: cell-based; details: Homo sapiens, A-431; cellular level; read-out: IC50, cell growth inhibition in EGFR overexppressed A431
BTK [4] = target: T1, BTK; experiment: BTK occupancy in B cell line (Ramos cells, biotinylated probe, AlphaScreen); assay type: cell-based
Procedure: A total of 5 × 10^5 Ramos cells/well were plated in 96-well PDL-coated plates in DMEM with high glucose (GIBCO) supplemented with 10% FBS. Serial dilutions of LY3439943 in DMSO (final DMSO concentration, 0.4%) were incubated with the cells for 1 h at 37 °C. An equal volume of a covalent biotinylated BTK probe was added (final concentration, 167 nM), and the cells were incubated for another 1 h at 37 °C. The cells were lysed, and the amount of BTK was determined using the AlphaScreen IgG Detection Kit (Perkin Elmer 6760617R) and an anti-BTK antibody (Thermo Scientific Cat# MA5-14929) following the manufacturer’s instructions. The signal was measured at 615 nm with an Envision plate reader (Perkin Elmer).

B cells [5] = experiment: B cell inhibition in whole blood; assay type: cell-based
BTK [6] = target: T1, BTK; experiment: Kinase selectivity biochemical assay (FRET), BTK; details: Supplementary Table 1, biochemical assay

T1 sequence (Q06187 whole entry): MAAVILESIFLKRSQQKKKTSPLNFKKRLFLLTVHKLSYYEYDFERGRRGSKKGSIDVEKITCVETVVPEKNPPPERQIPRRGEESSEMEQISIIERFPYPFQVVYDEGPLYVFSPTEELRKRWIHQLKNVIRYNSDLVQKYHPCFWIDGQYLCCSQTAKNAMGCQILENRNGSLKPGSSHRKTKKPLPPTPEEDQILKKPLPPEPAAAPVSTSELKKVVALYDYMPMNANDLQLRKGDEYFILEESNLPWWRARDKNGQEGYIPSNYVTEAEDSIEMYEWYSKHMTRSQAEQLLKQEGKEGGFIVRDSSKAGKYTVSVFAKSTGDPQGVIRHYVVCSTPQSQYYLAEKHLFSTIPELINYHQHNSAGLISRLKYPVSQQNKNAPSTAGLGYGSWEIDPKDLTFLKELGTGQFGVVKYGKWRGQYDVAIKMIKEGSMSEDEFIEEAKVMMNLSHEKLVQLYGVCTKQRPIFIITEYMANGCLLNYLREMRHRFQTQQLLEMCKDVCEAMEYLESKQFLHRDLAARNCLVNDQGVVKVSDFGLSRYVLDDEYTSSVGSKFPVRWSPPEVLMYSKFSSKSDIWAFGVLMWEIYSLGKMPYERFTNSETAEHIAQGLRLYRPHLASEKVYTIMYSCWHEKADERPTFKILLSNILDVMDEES

C=CC(=O)Nc1cccc(Oc2nc(Nc3ccc(N4CCN(C(C)C)CC4)cc3)nc3ccoc23)c1 [HM71035]
IC50 (BTK [1]): 3 nM | B cell-dependent T cell activation (IL-2 secretion, CD69 expression on T cells) (B cells [2]; B cells preincubated 1 h with compound, coculture with DO11.10 T cells): reduced in a dose-dependent fashion | IC50 (B cells [2]; Mus musculus, B-cell, in vivo preactivated B cells, roughly, read-out: IC50 effect on the B cells (CD80 and CD86 expression)): ~100 nM | IC50 (CTLL-2): > 500 nM | IC50 (BTK [3]): 170 nM | IC50 (JAK3): 39 nM | IC50 (A431): > 500 nM | IC50 (BTK [4]): 6 nM | IC50 (B cells [5]): 440 nM | IC50 (BTK [6]): 3 nM
